Experimental data as given in patent US6225494A, “Trisubstituted phenyl derivatives having retinoid agonist or inverse agonist type biological activity” (Allergan Sales, Inc., priority 1999, dated 2001).

How the values were obtained:
Experiment in all cases: Ligand binding assay
[1] = molecular target: T1, RARβ (Homo sapiens, UniProt P10826); details: read-out: Kd RABβ
T1 sequence (P10826 1-448 isoform P10826-2): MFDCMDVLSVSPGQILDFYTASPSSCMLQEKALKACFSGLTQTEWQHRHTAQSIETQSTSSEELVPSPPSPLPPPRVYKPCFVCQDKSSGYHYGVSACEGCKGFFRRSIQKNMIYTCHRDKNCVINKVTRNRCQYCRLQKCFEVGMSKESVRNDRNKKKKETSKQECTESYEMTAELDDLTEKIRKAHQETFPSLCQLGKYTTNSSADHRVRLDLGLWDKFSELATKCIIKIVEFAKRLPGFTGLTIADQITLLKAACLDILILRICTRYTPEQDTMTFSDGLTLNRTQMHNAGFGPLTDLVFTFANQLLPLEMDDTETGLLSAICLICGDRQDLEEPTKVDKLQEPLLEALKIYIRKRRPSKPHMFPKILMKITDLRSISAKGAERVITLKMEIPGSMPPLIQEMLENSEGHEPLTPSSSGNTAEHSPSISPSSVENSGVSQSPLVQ
From the text: (§1) Other assays described below, measure the ability of the compounds of the present invention to bind to, and/or activate various retinoid receptor subtypes. When in these assays a compound binds to a given receptor subtype and activates the transcription of a reporter gene through that subtype, then the compound is considered an agonist of that receptor subtype. […] In the below described assays the ability of the compounds to bind to RARα, RARβ, RARγ, RXRα, RXRβ and RXR.tau. receptors, and the ability or inability of the compounds to activate transcription of a reporter gene through these receptor subtypes can be tested.
(§2) A holoreceptor transactivation assay and a ligand binding assay which measure the antagonist/agonist like activity of the compounds of the invention, or their ability to bind to the several retinoid receptor subtypes, respectively, are described in published PCT Application No. WO WO93/11755 (particularly on pages 30-33 and 37-41) published on Jun. 24, 1993, the specification of which is also incorporated herein by reference. A detailed experimental procedure for holoreceptor transactivations has been described by Heyman et aL Cell 68, 397-406, (1992); Allegretto et aL J. Biol. Chem. 268, 26625-26633, and Mangelsdorf et aL The Retinoids: Biology, Chemistry and Medicine, pp 319-349, Raven Press Ltd., New York, which are expressly incorporated herein by reference. The results obtained in this assay are expressed in EC50 numbers, as they are also in the chimeric receptor transactivation assay. The results of ligand binding assay are expressed in Kd numbers. (See Cheng et aL Biochemical Pharmacology Vol. 22 pp 3099-3108, expressly incorporated herein by reference.)

[2] = molecular target: T2, RARγ (Homo sapiens, UniProt P13631)
T2 sequence (P13631 1-454): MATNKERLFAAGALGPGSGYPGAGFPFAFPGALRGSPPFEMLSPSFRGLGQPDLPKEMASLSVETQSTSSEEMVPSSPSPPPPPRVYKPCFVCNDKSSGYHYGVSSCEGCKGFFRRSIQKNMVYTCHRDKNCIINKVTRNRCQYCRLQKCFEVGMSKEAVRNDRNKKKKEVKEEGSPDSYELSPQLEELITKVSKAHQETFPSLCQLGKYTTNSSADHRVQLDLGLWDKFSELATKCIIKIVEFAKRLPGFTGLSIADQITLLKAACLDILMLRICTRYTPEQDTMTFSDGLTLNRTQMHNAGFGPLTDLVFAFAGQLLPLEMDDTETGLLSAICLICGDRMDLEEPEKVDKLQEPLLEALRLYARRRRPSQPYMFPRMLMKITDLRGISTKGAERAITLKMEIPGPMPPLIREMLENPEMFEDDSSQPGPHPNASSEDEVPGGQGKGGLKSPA
From the text: as §1, §2

[3] = molecular target: T3, RARα (Homo sapiens, UniProt P10276)
T3 sequence (P10276 1-462): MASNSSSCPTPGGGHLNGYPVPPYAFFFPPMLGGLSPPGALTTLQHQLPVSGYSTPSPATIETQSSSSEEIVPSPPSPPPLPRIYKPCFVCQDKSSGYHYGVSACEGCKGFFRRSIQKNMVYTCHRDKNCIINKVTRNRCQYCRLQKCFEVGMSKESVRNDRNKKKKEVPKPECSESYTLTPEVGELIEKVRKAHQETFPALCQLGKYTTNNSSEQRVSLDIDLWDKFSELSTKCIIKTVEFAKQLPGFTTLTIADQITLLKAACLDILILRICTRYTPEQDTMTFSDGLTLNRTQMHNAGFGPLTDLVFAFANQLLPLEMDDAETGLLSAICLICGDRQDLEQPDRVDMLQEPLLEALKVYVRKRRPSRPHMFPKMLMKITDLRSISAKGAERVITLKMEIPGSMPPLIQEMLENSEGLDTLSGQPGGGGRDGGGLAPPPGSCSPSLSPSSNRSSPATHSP
From the text: as §1, §2

| Kd [1] [nM] | Kd [2] [nM] | Kd [3] [nM] | Structure (SMILES) |
| --- | --- | --- | --- |
| 98 | 897 | 339 | Cc1ccc(C(=O)c2cc(C#Cc3ccc(C(=O)O)cc3)ccc2O)cc1 [Compound 5, 4-[[4'-hydroxy-3'-(4"-methyl)benzoyl]phenylethynyl]benzoic acid] |
| 1320 | 5220 | 8200 | C=C(c1ccc(C)cc1)c1cc(C#Cc2ccc(C(=O)O)cc2)ccc1O [Compound 8, 4-[[4'-Hydroxy-3'-(1-p-tolyl)vinyl]phenylethynyl]benzoic acid] |
| 152 | 730 | 942 | C=C(c1ccc(C)cc1)c1cc(C#Cc2ccc(C(=O)O)cc2)ccc1OCOC [Compound 9, 4-[[4'-methoxymethoxy-3'-(1-p-tolyl)vinyl]phenylethynyl]benzoic acid] |
| 193 | 394 | 1450 | C=C(c1ccc(C)cc1)c1cc(C#Cc2ccc(C(=O)O)cc2)ccc1OC [Compound 12, 4-[[4'-Methoxy-3'-(1-p-tolyl)vinyl]phenylethynyl]benzoic acid] |
| 487 | 902 | 1190 | COCOc1ccc(C#Cc2ccc(C(=O)O)cc2)cc1C(=O)c1ccc(C)cc1 [Compound 13] |
| 224 | > 1000 | > 1000 | C=C(c1ccc(C)cc1)c1cccc(C#Cc2ccc(C(=O)O)cc2)c1 [Compound 20, 4-[[3'-(1-p-Tolyl)vinyl]phenylethynyl]benzoic acid] |
| 763 | 1500 | 1600 | COc1ccc(C#Cc2ccc(C(=O)O)cc2)cc1C(=O)c1ccc(C)cc1 [Compound 22, 4-[[4'-methoxy-3'-(4"-methyl)benzoyl]phenylethynyl]benzoic acid] |
| 217 | 1960 | 1150 | Cc1ccc(C(=O)c2cc(C#Cc3ccc(C(=O)O)c(F)c3)c(C)cc2O)cc1 [Compound 25, 4-[[4'-Hydroxy-2'-methyl-5'-(4"-methyl)benzoyl]phenylethynyl]-2-fluoro-benzoic acid] |
| 538 | 949 | 2090 | C=C(c1ccc(C)cc1)c1cc(C#Cc2ccc(C(=O)O)cc2)ccc1OC(C)C [Compound 28, 4-[[4'-Isopropoxy-3'-(1-p-tolyl)vinyl]phenylethynyl]benzoic acid] |
| 233 | 817 | 1160 | C=C(c1ccc(C)cc1)c1cc(C#Cc2ccc(C(=O)O)c(F)c2)ccc1OC(C)C [Compound 29, 4-[[4'-Isopropoxy-3'-(1-p-tolyl)vinyl]phenylethynyl]-2-fluoro-benzoic acid] |
| 488 | 366 | 3290 | C=C(c1cccc(C)c1)c1cc(C#Cc2ccc(C(=O)O)cc2)ccc1OC(C)C [Compound 31, 4-[[4'-Isopropoxy-3'-(1-m-tolyl)vinyl]phenylethynyl]benzoic acid] |
